Usually EC50 stands for the concentration giving half of the maximal effect. Lower therefore signals greater potency.

The structures appear in SMILES notation.

The target of this assay is Ras-related C3 botulinum toxin substrate 1 (Mus musculus, UniProt P63001). In words: activated mutant Rac1 GTP binding inhibitors, SAR follow-up, biochemical, additional analogs, multiplex bead flow cytometry (AID 2039). Background: Flow cytometry measures light scatter and fluorescence of single cells or particles in a stream.
`O=C1Nc2c(Cl)cccc2C1=C1Nc2ccccc2C1=O` showed an EC50 of 30 µM. The value for `O=C1Nc2c(Br)cccc2C1=C1Nc2ccccc2C1=O` was 27.6 µM; that for `O=C1Nc2c(F)cccc2C1=C1Nc2ccccc2C1=O` was 30 µM. The molecule `O=C1NC(=O)/C(=C2/C(=O)Nc3ccccc32)N1` gave an EC50 of 11.6 µM. The result for `O=C1Nc2ccc(Br)cc2C1=C1Nc2ccccc2C1=O` reads 12.2 µM; that for `O=C1Nc2ccccc2/C1=C1/Nc2ccccc2C1=O` [2-[(3Z)-2-oxo-2,3-dihydro-1H-indol-3-ylidene]-2,3-dihydro-1H-indol-3-one], 30 µM; that for `O=C1N=c2ccccc2=C1c1[nH]c2ccccc2c1NO` [3-[3-(hydroxyamino)-1H-indol-2-yl]-2-indolone], 30 µM.

`O=C1N=c2ccc(Br)cc2=C1c1[nH]c2ccccc2c1NO` [5-bromanyl-3-[3-(oxidanylamino)-1H-indol-2-yl]indol-2-one] displayed an EC50 of 32.7 µM. Molecule `O=C1N=c2c(Br)cccc2=C1c1[nH]c2ccccc2c1NO` [7-bromanyl-3-[3-(oxidanylamino)-1H-indol-2-yl]indol-2-one] returned an EC50 of 30 µM. The result for `O=C1N=c2c(Cl)cccc2=C1c1[nH]c2ccccc2c1NO` [7-chloro-3-[3-(hydroxyamino)-1H-indol-2-yl]-2-indolone] reads 30 µM; that for `O=C1N=c2c(F)cccc2=C1c1[nH]c2ccccc2c1NO` [7-fluoro-3-[3-(hydroxyamino)-1H-indol-2-yl]-2-indolone], 31.6 µM. In turn, `O=C1NC(=S)N/C1=C1\C(=O)Nc2ccccc21` [(3Z)-3-(5-oxo-2-sulfanylideneimidazolidin-4-ylidene)-1H-indol-2-one] had an EC50 of 7 µM.

Source of the values: BindingDB's records for doi:10.7270/Q24M92ZV (Nmmlsc, 2009).
